Experimental data from PubChem BioAssay (NCI).
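1) Cells in 96-well plates. 2) Compound, 48 h, 5 concentrations. 3) Linear interpolation between surrounding doses. 4) Unreached endpoint = highest concentration. TGI: concentration producing complete growth inhibition.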

Key:
Assay in all cases: inhibition of tumour cell growth, NCI panel, 48 h
MDA-MB-231 breast = tested on: MDA-MB-231 breast
HOP-62 NSCLC = tested on: HOP-62 NSCLC
BT-549 breast = tested on: BT-549 breast
SK-MEL-5 melanoma = tested on: SK-MEL-5 melanoma
HCC-2998 colon = tested on: HCC-2998 colon
NCI/ADR-RES ovarian = tested on: NCI/ADR-RES ovarian
MOLT-4 leukemia = tested on: MOLT-4 leukemia
CAKI-1 renal = tested on: CAKI-1 renal
NCI-H460 lung = tested on: NCI-H460 lung
OVCAR-8 ovarian = tested on: OVCAR-8 ovarian
K-562 leukemia = tested on: K-562 leukemia
NCI-H226 lung = tested on: NCI-H226 lung
UACC-257 melanoma = tested on: UACC-257 melanoma
DU-145 prostate = tested on: DU-145 prostate
786-0 renal = tested on: 786-0 renal
HL-60(TB) leukemia = tested on: HL-60(TB) leukemia
UACC-62 melanoma = tested on: UACC-62 melanoma
IGROV1 ovarian = tested on: IGROV1 ovarian
EKVX NSCLC = tested on: EKVX NSCLC
A549 NSCLC = tested on: A549 NSCLC
SR leukemia = tested on: SR leukemia
HS 578T breast = tested on: HS 578T breast
COLO 205 colon = tested on: COLO 205 colon
MDA-MB-435 = tested on: MDA-MB-435
A498 renal = tested on: A498 renal
SF-268 CNS = tested on: SF-268 CNS
PC-3 prostate = tested on: PC-3 prostate
UO-31 renal = tested on: UO-31 renal
SF-295 CNS = tested on: SF-295 CNS
OVCAR-3 ovarian = tested on: OVCAR-3 ovarian
ACHN renal = tested on: ACHN renal
MALME-3M melanoma = tested on: MALME-3M melanoma
HCT-15 colon = tested on: HCT-15 colon
NCI-H522 lung = tested on: NCI-H522 lung
T-47D breast = tested on: T-47D breast
NCI-H23 lung = tested on: NCI-H23 lung
RPMI-8226 leukemia = tested on: RPMI-8226 leukemia
SNB-75 CNS = tested on: SNB-75 CNS
M14 melanoma = tested on: M14 melanoma
TK-10 renal = tested on: TK-10 renal
U251 CNS = tested on: U251 CNS
SNB-19 CNS = tested on: SNB-19 CNS
MDA-N = tested on: MDA-N
MCF7 breast = tested on: MCF7 breast
SN12C renal = tested on: SN12C renal
SF-539 CNS = tested on: SF-539 CNS
SW-620 colon = tested on: SW-620 colon
LOX IMVI melanoma = tested on: LOX IMVI melanoma
CCRF-CEM leukemia = tested on: CCRF-CEM leukemia
OVCAR-5 ovarian = tested on: OVCAR-5 ovarian
HCT-116 colon = tested on: HCT-116 colon
SK-OV-3 ovarian = tested on: SK-OV-3 ovarian
HT29 colon = tested on: HT29 colon
KM12 colon = tested on: KM12 colon
SK-MEL-28 melanoma = tested on: SK-MEL-28 melanoma
SK-MEL-2 melanoma = tested on: SK-MEL-2 melanoma
OVCAR-4 ovarian = tested on: OVCAR-4 ovarian
HOP-92 NSCLC = tested on: HOP-92 NSCLC
RXF 393 renal = tested on: RXF 393 renal

Measured: TGI

C=C[C@]1(C)CC[C@]2(C)C(CC[C@@]3(C)C2C[C@H](O)[C@H](O)[C@@]3(C)O)C1 (stereo not given in full)
not listed: OVCAR-4 ovarian | HOP-92 NSCLC | RXF 393 renal
> 100 µM: all other assays above

c1ccc2c3c(ccc2c1)CSCc1ccc2ccccc2c1-3
not listed: NCI-H460 lung | NCI-H226 lung | HL-60(TB) leukemia | SW-620 colon | SK-OV-3 ovarian
> 100 µM: all other assays above
